Laboratory results: patent publication US20260007601A1, “IONIZABLE CATIONIC LIPID COMPOUND AND COMPOSITION FOR DELIVERING NUCLEIC ACID AND USE THEREOF” (BEIJING YOUCAREKECHUANG PHARMACEUTICAL TECHNOLOGY CO., LTD., priority 2023, published 2026)

Key:
[1] = Particle size and polydispersity index (PDI) of nanolipid particles, dynamic light scattering; type: physicochemical; details: LNP formulation prepared from the named cationic lipid, 25° C
Method: The particle size and polydispersity index (PDI) were determined by dynamic light scattering method using a Malvern laser particle size analyzer. 10 μL of liposome solution was diluted to 1 mL with RNase-free deionized water and added to a sample pool. Each sample was measured three times. The measurement conditions were: 90° scattering angle, 25° C.

[2] = Encapsulation rate, drug loading concentration and total RNA concentration detection (RiboGreen); type: physicochemical; details: LNP formulation of the named lipid
From the text: Encapsulation rate is a key quality attribute of liposomes. It refers to the percentage of drug content encapsulated in the lipid bilayer to the total amount of drug added, which can reflect the degree of drug encapsulation in liposomes. The Chinese Pharmacopoeia stipulates that the encapsulation rate should usually not be less than 80%.
The drug loading capacity is the ratio of the amount of drug in the liposome to the total amount of drug and carrier in the liposome. The drug loading capacity directly affects the clinical application dose of the drug, so the larger the drug loading capacity, the more it can meet clinical needs. The drug loading concentration is proportional to the drug loading capacity, and the relative proportion of the drug loading concentration can represent the relative proportion of the drug loading capacity. The relative proportion of the total RNA concentration can represent the relative proportion of the amount of mRNA carried by the LNP formulation.
1×TE buffer, 0.1% Triton X-100 buffer, and RiboGreen reagent (1:200) and mRNA standard stock solution were prepared.
An appropriate amount of sample was taken and added to an appropriate amount of 1×TE buffer, which was diluted to a solution containing about 2.8 μg of the test sample per 1 mL. Then the sample was added to a 96-well plate, where 50 μL of the diluted test sample or mRNA standard stock solution was added to each well, and then added with 1×TE buffer and 0.1% Triton X-100 buffer. The samples were incubated at 37° C. for 10 minutes, and 100 μL of RiboGreen reagent (1:200) was added to each well of the 96-well plate. The plate was centrifuged, and read using an ELISA reader, and the data was processed.

293T cells [3] = experiment: Fluorescence detection of Fluc-mRNA (cell transfection efficiency of LNP formulations); type: cell-based; details: for Relative light unit (RLU): LNP containing 0.3 μg Fluc-mRNA, 24 hours; for Multiples of values that equivalent to YK-201: RLU of YK-201 / RLU of the named lipid; for Multiples of values that equivalent to YK-202: RLU of YK-202 / RLU of the named lipid; for Multiples of values that equivalent to YK-209: RLU of YK-209 / RLU of the named lipid; for Ratio relative to SM-102: RLU of the named lipid / RLU of SM-102, times that of SM-102
Method: (§1) Cell recovery and passaging: 293T cells were recovered and cultured in culture dishes to the required cell number.
(§2) Plating: The cells in the culture dish were digested, counted, plated in a 96-well plate at 10,000 cells per well, or in a 12-well plate at 150,000 cells per well, and cultured overnight until the cells adhered to the wall.
(§3) Cell recovery and passage: The method was the same as in Example 3.
(§4) Plating: The method was the same as Example 3.
The LNP formulation containing 0.3 μg Fluc-mRNA (prepared according to Example 4, the LNP formulation carrier components were cationic lipids, neutral lipids, structured lipids and polymer-conjugated lipids at a molar ratio of 49:10:39.5:1.5, and the cationic lipids were cationic lipids listed in Table 1) was added to the cell culture medium of a 96-well plate, and cultured for 24 hours. After that, the corresponding reagents were added according to the instructions of the Gaussia Luciferase Assay Kit, and the fluorescence expression intensity of each well was detected by the IVIS fluorescence detection system. This experiment verified the transfection efficiency of the LNP formulation in the cell, and the specific detection results are shown in Tables 6-9.

293T cells [4] = experiment: Cell survival rate assay (CCK-8); type: cell-based; details: LNP containing 1.5 μg Fluc-mRNA, 24 hours, CCK-8
Method: as §1, §2, §3, §4
The LNP formulations containing 1.5 μg Fluc-mRNA (prepared according to Example 4, the LNP formulation carrier components are cationic lipids, neutral lipids, structured lipids and polymer-conjugated lipids at a molar ratio of 49:10:39.5:1.5, wherein the cationic lipids are the cationic lipids listed in Table 1) and the Lipofectamine 3000 formulation were added to the cell culture medium of the 96-well plate, and the culture was continued for 24 hours. Then, 10 μL of CCK-8 solution was added to each well, and the culture plate was incubated in the incubator for 1 hour, and the absorbance at 450 nm was measured by a microplate reader.

female BALB/C mice = experiment: Mouse in vivo imaging of Fluc-mRNA LNP formulations; set-up: average radiation intensity (mRNA expression): unit not given here; details: 10 μg Fluc-mRNA LNP intramuscularly
Method: The LNP formulation containing 10 μg Fluc-mRNA (prepared according to Example 4) was injected intramuscularly into female BALB/C mice aged 4 to 6 weeks and weighing 17 to 19 g, and the mice were intraperitoneally injected with fluorescent imaging substrates at specific time points (6 h, 24 h, 48 h and 7 d) after administration. The mice moved freely for 5 minutes, and then the average radiation intensity (corresponding to the fluorescence expression intensity) of the protein expressed by the mRNA carried by the LNP in the mice was detected by IVIS Spectrum small animal in vivo imager. The test results are shown in Tables 14 to 17 and FIGS. 12 to 14.

| PDI [1] | Particle size [1] | Drug loading concentration [2] | Encapsulation rate [2] | Total RNA concentration [2] | SMILES | Relative light unit (RLU) (293T cells [3]) | Multiples of values that equivalent to YK-201 (293T cells [3]) | Multiples of values that equivalent to YK-202 (293T cells [3]) | Multiples of values that equivalent to YK-209 (293T cells [3]) | Ratio relative to SM-102 (293T cells [3]) | Cell survival rate (293T cells [4]) | average radiation intensity (mRNA expression) (female BALB/C mice; 6 h) | average radiation intensity (mRNA expression) (female BALB/C mice; 24 h) | average radiation intensity (mRNA expression) (female BALB/C mice; 48 h) | average radiation intensity (mRNA expression) (female BALB/C mice; 7 d) |
| --- | --- | --- | --- | --- | --- | --- | --- | --- | --- | --- | --- | --- | --- | --- | --- |
| 17.6% | 207 nm | 34.70 µg/mL | 82.0% | 42.34 µg/mL | CCCCCCCCC(CCCCCCCC)OC(=O)CCCCCN(CCCCCC(=O)OC(CCCCCCCC)CCCCCCCC)CCN(CCO)CCO [YK-213, bis(heptadecan-9-yl)-6,6-((2-(bis(2-hydroxyethyl)amino)ethyl)azadialkyl)dihexanoate] | 1364505 RLU | 20.87 | 21.95 | 15.43 | 0.82 | 41.44% |  |  |  |  |
| 30.4% | 218 nm | 25.78 µg/mL | 94.0% | 27.43 µg/mL | CCCCCCCCCCCOC(=O)CCCCCN(CCCCCCCC(=O)OC(CCCCCCCC)CCCCCCCC)CCN(C)CCNC [YK-222] | 606360 RLU | 46.97 | 49.41 | 34.73 | 0.36 | 33.75% |  |  |  |  |
| 23.7% | 235 nm | 38.38 µg/mL | 91.0% | 42.19 µg/mL | CCCCCCCCCCCOC(=O)CCCCCN(CCCCCCCC(=O)OCCC(CCCCCC)CCCCCC)CCN(C)CCO [YK-203] | 3869614 RLU | 7.36 | 7.74 | 5.44 | 2.32 | 35.56% |  |  |  |  |
| 20.7% | 222 nm | 42.91 µg/mL | 97.7% | 43.92 µg/mL | CCCCCCC(CCCCCC)CCOC(=O)CCCCCN(CCCCCC(=O)OCCC(CCCCCC)CCCCCC)CCN(C)CCO [YK-211, bis(3-hexylnonyl)-6,6-((2-(2-hydroxyethyl(methyl)amino)ethyl)azadialkyl)dihexanoate] | 1370100 RLU | 20.79 | 21.87 | 15.37 | 0.82 | 52.30% |  |  |  |  |
| 19.2% | 172 nm | 40.25 µg/mL | 94.4% | 42.62 µg/mL | CCCCCCCCC(CCCCCCCC)COC(=O)CCCCCN(CCCCCC(=O)OCC(CCCCCCCC)CCCCCCCC)CCN(CCO)CCO [YK-212, bis(2-octyldecyl)-6,6-((2-(bis(2-hydroxyethyl)amino)ethyl)azadialkyl)dihexanoate] | 3910590 RLU | 7.28 | 7.66 | 5.39 | 2.35 | 35.26% |  |  |  |  |

More lines, now with the values behind:

| SMILES | PDI [1] | Particle size [1] | Drug loading concentration [2] | Encapsulation rate [2] | Total RNA concentration [2] | Relative light unit (RLU) (293T cells [3]) | Multiples of values that equivalent to YK-201 (293T cells [3]) | Multiples of values that equivalent to YK-202 (293T cells [3]) | Multiples of values that equivalent to YK-209 (293T cells [3]) | Ratio relative to SM-102 (293T cells [3]) | Cell survival rate (293T cells [4]) | average radiation intensity (mRNA expression) (female BALB/C mice; 6 h) | average radiation intensity (mRNA expression) (female BALB/C mice; 24 h) | average radiation intensity (mRNA expression) (female BALB/C mice; 48 h) | average radiation intensity (mRNA expression) (female BALB/C mice; 7 d) |
| --- | --- | --- | --- | --- | --- | --- | --- | --- | --- | --- | --- | --- | --- | --- | --- |
| CCCCCCCCCCCOC(=O)CCCCCN(CCCCC(=O)OCC(CCCCCCCC)CCCCCCCC)CCNCC [YK-226] |  |  |  |  |  | 57660 RLU | 493.98 | 519.55 | 365.22 | 0.03 | 27.90% |  |  |  |  |
| CCCCCCCCCCOC(=O)CCCN(CCCCCC(=O)OCCC(CCCCCC)CCCCCC)C(=O)SCCCN(C)C [YK-220] | 26.6% | 221 nm | 25.27 µg/mL | 57.5% | 43.92 µg/mL | 216398 RLU | 131.62 | 138.44 | 97.32 | 0.13 | 58.99% |  |  |  |  |
| CCCCCCCCCCOC(=O)CCCN(CCCCCC(=O)OCC(CCCCCCCC)CCCCCCCC)C(=O)SCCCN(C)C [YK-219] | 22.4% | 217 nm | 30.31 µg/mL | 64.2% | 47.23 µg/mL | 1505963 RLU | 18.91 | 19.89 | 13.98 | 0.90 | 58.61% |  |  |  |  |
| CCCCCCCCCCOC(=O)CCCN(CCCCCC(=O)OCC(CCCCCCCC)CCCCCCCC)CCOC(=O)SCCCN(C)C [YK-218, 2-octyldecyl-11-(4-(decyloxy)-4-oxobutyl)-2-methyl-7-oxo-8-oxo-6-thio-2,11-diazaheptane-17-carboxylate] | 17.2% | 222 nm | 36.50 µg/mL | 78.2% | 46.66 µg/mL | 607080 RLU | 46.92 | 49.35 | 34.69 | 0.36 | 72.84% |  |  |  |  |
| CCCCCCCCC(CCCCCCCC)OC(=O)CCCCCCCN(CCO)CCCCCCCC(=O)OCCC(CCCCCC)CCCCCC [Compound 21, 9-heptadecyl-8-(8-((3-hexylnonyl)oxy)-8-oxooctyl)-((2-hydroxyethyl)amino)octanoate, reference compound] |  |  |  |  |  | 1421028 RLU | 20.04 | 21.08 |  | 0.85 | 69.02% | 600390 | 108000 | 30025 | 6102 |
| CCCCCCC(CCCCCC)CCOC(=O)CCCCCN(CCCCCC(=O)OCCC(CCCCCC)CCCCCC)CCN(C)CCNC [YK-225] | 19.3% | 222 nm | 38.74 µg/mL | 98.0% | 39.53 µg/mL | 26145 RLU | 1089.41 | 1145.82 | 805.46 | 0.02 | 43.41% |  |  |  |  |
